For the experiment, the system named is L1210 leukemia ip in BDF1 mice, survival T/C. The experiment is described as follows: NCI In Vivo Anticancer Drug Screen. Data for tumor model L1210 Leukemia (intraperitoneal) in B6D2F1 (BDF1) mice. The following applies: endpoint: mean survival time, higher = longer survival. The method, boiled down:
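Ratio derived from survival: compound-dosed mice over vehicle-dosed mice, all bearing a transplantable tumor.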

Setting [1] is: dose: 25.0 mg/kg/injection, schedule: Q01DX009 (ip), vehicle: Klucel (hydroxypropylcellulose) (HPC).
The mark [2] stands for this setting: dose: 100.0 mg/kg/injection, schedule: Q01DX001 (ip), vehicle: saline.
[3] abbreviates: dose: 200.0 mg/kg/injection, schedule: Q01DX001 (ip), vehicle: saline.
The mark [4] stands for this setting: dose: 400.0 mg/kg/injection, schedule: Q01DX001 (ip), vehicle: saline.
[5] abbreviates: dose: 100.0 mg/kg/injection, schedule: Q01DX009 (ip), vehicle: Klucel (hydroxypropylcellulose) (HPC).
Setting [6] is: dose: 200.0 mg/kg/injection, schedule: Q01DX009 (ip), vehicle: Klucel (hydroxypropylcellulose) (HPC).
Setting [7] is: dose: 400.0 mg/kg/injection, schedule: Q01DX009 (ip), vehicle: Klucel (hydroxypropylcellulose) (HPC).

The structures appear in SMILES notation. Inconclusive results and toxic doses are left out.

For the compound `S=C=NCC(Br)CBr` (configuration not stated), the T/C reads like this: (dose: 6.25 mg/kg/injection, schedule: Q01DX009 (ip), vehicle: Klucel (hydroxypropylcellulose) (HPC)) 104 % of control; (dose: 12.5 mg/kg/injection, schedule: Q01DX009 (ip), vehicle: Klucel (hydroxypropylcellulose) (HPC)) 103 % of control; (dose: 12.5 mg/kg/injection, schedule: Q04DX003 (ip), vehicle: Klucel (hydroxypropylcellulose) (HPC)) 95 % of control; under setting [1], 87 % of control; (dose: 25.0 mg/kg/injection, schedule: Q04DX003 (ip), vehicle: Klucel (hydroxypropylcellulose) (HPC)) 105 % of control.

For `CCOC(CC)OCC`, the T/C is 97 % of control under setting [2], 103 % of control under setting [3] and 94 % of control under setting [4].

With `O=C(Cc1ccccc1)OCC1CC2C=CC1C2` (configuration not stated), the T/C (dose: 222.0 mg/kg/injection, schedule: Q01DX Z (ip), vehicle: methylcellulose (MC)) is 102 % of control; the T/C (dose: 333.0 mg/kg/injection, schedule: Q01DX Z (ip), vehicle: methylcellulose (MC)) was 93 % of control; the T/C (dose: 500.0 mg/kg/injection, schedule: Q01DX Z (ip), vehicle: methylcellulose (MC)) is 93 % of control.

Take `Cc1ccc(C)c(NC(=O)Nc2ncccn2)c1`: the T/C was 102 % of control under setting [5], 92 % of control under setting [6] and 97 % of control under setting [7].

Consider `Clc1cc2n[nH]nc2c(SCc2ccccc2)n1`, for which the T/C (dose: 50.0 mg/kg/injection, schedule: Q01DX005 (ip), vehicle: saline with Tween-80) was 101 % of control; the T/C (dose: 100.0 mg/kg/injection, schedule: Q01DX005 (ip), vehicle: saline with Tween-80) is 90 % of control; the T/C (dose: 200.0 mg/kg/injection, schedule: Q01DX005 (ip), vehicle: saline with Tween-80) was 97 % of control.

In the case of `O=C(COc1ccc(Cl)c(Cl)c1)NCc1ccc[n+](CC(=O)Nc2ccc(S(=O)(=O)F)cc2)c1`, the T/C is, setting by setting: (dose: 100.0 mg/kg/injection, schedule: Q01DX009 (ip), vehicle: saline) 100 % of control; (dose: 200.0 mg/kg/injection, schedule: Q01DX009 (ip), vehicle: saline) 94 % of control.

On to `CC(=O)OC1CCC2(C)C(CCC3C2CC(=O)C2(C)C3CC(N3CC3)C2C(C)=O)C1` (configuration not stated), for which the T/C reads like this: (dose: 100.0 mg/kg/injection, schedule: Q01DX001 (sc), vehicle: steriod suspending solution) 89 % of control; (dose: 200.0 mg/kg/injection, schedule: Q01DX001 (sc), vehicle: steriod suspending solution) 99 % of control; (dose: 400.0 mg/kg/injection, schedule: Q01DX001 (sc), vehicle: steriod suspending solution) 99 % of control.

As to `CC/C=C(\C)C1(CCC)C(N)=NC(=O)N=C1N`, the T/C (dose: 75.0 mg/kg/injection, schedule: Q01DX001 (ip), vehicle: carboxymethylcellulose (CMC)) was 93 % of control and the T/C (dose: 150.0 mg/kg/injection, schedule: Q01DX001 (ip), vehicle: carboxymethylcellulose (CMC)) is 91 % of control.

With `CCCCCc1cc(=O)[nH]c(=O)[nH]1`, the T/C (dose: 50.0 mg/kg/injection, schedule: Q01DX001 (ip), vehicle: Klucel (hydroxypropylcellulose) (HPC)) was 97 % of control; the T/C (dose: 100.0 mg/kg/injection, schedule: Q01DX001 (ip), vehicle: Klucel (hydroxypropylcellulose) (HPC)) is 96 % of control; the T/C (dose: 200.0 mg/kg/injection, schedule: Q01DX001 (ip), vehicle: Klucel (hydroxypropylcellulose) (HPC)) is 96 % of control.

Turning to `CNC(=O)Oc1ccccc1-c1ccccc1`, the T/C (dose: 100.0 mg/kg/injection, schedule: Q01DX001 (ip), vehicle: carboxymethylcellulose (CMC)) was 100 % of control; the T/C (dose: 200.0 mg/kg/injection, schedule: Q01DX001 (ip), vehicle: carboxymethylcellulose (CMC)) was 100 % of control; the T/C (dose: 400.0 mg/kg/injection, schedule: Q01DX001 (ip), vehicle: carboxymethylcellulose (CMC)) is 96 % of control.

With `CCCCCCC(C)OC(=O)c1ccccc1C(=O)OC(C)CCCCCC` (configuration not stated), the T/C is 102 % of control (dose: 100.0 mg/kg/injection, schedule: Q04DX002 (ip), vehicle: saline); 95 % of control (dose: 200.0 mg/kg/injection, schedule: Q04DX002 (ip), vehicle: saline); 102 % of control (dose: 400.0 mg/kg/injection, schedule: Q04DX002 (ip), vehicle: saline).

As for `COC(=O)CCC1CCC(=O)C1` (configuration not stated), the T/C by setting is: (dose: 37.5 mg/kg/injection, schedule: Q04DX002 (ip), vehicle: saline with Tween-80) 95 % of control; (dose: 75.0 mg/kg/injection, schedule: Q04DX002 (ip), vehicle: saline with Tween-80) 95 % of control; (dose: 150.0 mg/kg/injection, schedule: Q04DX002 (ip), vehicle: saline with Tween-80) 98 % of control; (dose: 300.0 mg/kg/injection, schedule: Q04DX002 (ip), vehicle: saline with Tween-80) 95 % of control.

`CCCC(=O)OCC1OC(n2cnc3c(=S)nc[nH]c32)C(OC(=O)CCC)C1OC(=O)CCC` (configuration not stated): the T/C runs as follows: (dose: 3.12 mg/kg/injection, schedule: Q04DX003 (ip), vehicle: saline) 97 % of control; (dose: 6.25 mg/kg/injection, schedule: Q01DX009 (ip), vehicle: saline) 112 % of control; (dose: 6.25 mg/kg/injection, schedule: Q01DX Z (ip), vehicle: other) 117 % of control; (dose: 6.25 mg/kg/injection, schedule: Q04DX003 (ip), vehicle: saline) 113 % of control; (dose: 8.36 mg/kg/injection, schedule: Q01DX009 (ip), vehicle: saline with Tween-80) 122 % of control; (dose: 8.36 mg/kg/injection, schedule: Q04DX003 (ip), vehicle: saline with Tween-80) 107 % of control. Moreover, the T/C runs as follows: (dose: 12.5 mg/kg/injection, schedule: Q01DX009 (ip), vehicle: saline) 122 % of control; (dose: 12.5 mg/kg/injection, schedule: Q04DX003 (ip), vehicle: saline with Tween-80) 114 % of control; (dose: 12.5 mg/kg/injection, schedule: Q04DX003 (ip), vehicle: saline) 118 % of control; (dose: 25.0 mg/kg/injection, schedule: Q01DX Z (ip), vehicle: other) 153 % of control; (dose: 25.0 mg/kg/injection, schedule: Q04DX003 (ip), vehicle: saline) 121 % of control; (dose: 26.0 mg/kg/injection, schedule: Q01DX001 (ip), vehicle: saline) 121 % of control. Besides, the T/C (dose: 40.0 mg/kg/injection, schedule: Q01DX001 (ip), vehicle: saline) is 121 % of control; the T/C (dose: 50.0 mg/kg/injection, schedule: Q01DX009 (ip), vehicle: saline) was 164 % of control; the T/C (dose: 50.0 mg/kg/injection, schedule: Q01DX Z (ip), vehicle: other) was 89 % of control; the T/C (dose: 200.0 mg/kg/injection, schedule: Q04DX003 (ip), vehicle: saline) was 123 % of control; the T/C (dose: 300.0 mg/kg/injection, schedule: Q01DX001 (ip), vehicle: saline) was 151 % of control; the T/C under setting [4] is 121 % of control. The T/C is 100 % of control (dose: 400.0 mg/kg/injection, schedule: Q01DX009 (ip), vehicle: saline) and 105 % of control (dose: 400.0 mg/kg/injection, schedule: Q04DX003 (ip), vehicle: saline).

For the compound `CCOC(=O)c1cccc2c([N+](=O)[O-])cccc12`, the T/C under setting [2] is 94 % of control; the T/C (dose: 100.0 mg/kg/injection, schedule: Q01DX009 (ip), vehicle: acetone) was 96 % of control; the T/C under setting [3] is 98 % of control; the T/C (dose: 200.0 mg/kg/injection, schedule: Q01DX009 (ip), vehicle: acetone) was 88 % of control; the T/C under setting [4] was 98 % of control; the T/C (dose: 400.0 mg/kg/injection, schedule: Q01DX009 (ip), vehicle: acetone) is 97 % of control.

Turning to `CNC(=O)Nc1c(C)cccc1C`, the T/C reads like this: under setting [5], 93 % of control; (dose: 100.0 mg/kg/injection, schedule: Q04DX003 (ip), vehicle: Klucel (hydroxypropylcellulose) (HPC)) 106 % of control; under setting [6], 93 % of control; (dose: 200.0 mg/kg/injection, schedule: Q04DX003 (ip), vehicle: Klucel (hydroxypropylcellulose) (HPC)) 101 % of control; under setting [7], 97 % of control; (dose: 400.0 mg/kg/injection, schedule: Q04DX003 (ip), vehicle: Klucel (hydroxypropylcellulose) (HPC)) 98 % of control.

Turning to `O=S1(=O)CC23C=CC=CC2(CCCC3)C1Cl` (configuration not stated), the T/C under setting [1] was 94 % of control; the T/C (dose: 50.0 mg/kg/injection, schedule: Q01DX009 (ip), vehicle: Klucel (hydroxypropylcellulose) (HPC)) is 102 % of control; the T/C under setting [5] was 94 % of control.

Values taken from PubChem BioAssay AID248 (DTP/NCI, 2004).
